Source: ChEMBL document CHEMBL1201862, “PubChem BioAssay data set” (2004)
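How tested: cells in 96-well plates exposed to compound for 48 hours at five concentrations. GI50 = concentration required for 50% inhibition of growth.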 Active and inactive are the calls of the source. No stated cut-off is given here; in the data, active = GI50 up to about 1.1 µM and inactive = higher.

How the values were obtained:
Assay in all cases: inhibition of tumour cell growth, NCI panel, 48 h
786-0 = tested on: 786-0
A498 = tested on: A498
A549 = tested on: A549
ACHN = tested on: ACHN
CAKI-1 = tested on: CAKI-1
COLO 205 = tested on: COLO 205
DU-145 = tested on: DU-145
HOP-62 = tested on: HOP-62
HOP-92 = tested on: HOP-92
MDA-MB-435 = tested on: MDA-MB-435
Malme-3M = tested on: Malme-3M
NCI/ADR-RES = tested on: NCI/ADR-RES
SK-MEL-2 = tested on: SK-MEL-2
SNB-19 = tested on: SNB-19
SR = tested on: SR
SW-620 = tested on: SW-620
T47D = tested on: T47D
U-251 = tested on: U-251
UACC-257 = tested on: UACC-257
UO-31 = tested on: UO-31

Measured: GI50

CN(C)c1ccc(C2SCC(=O)N2c2nc3cc4sc(N5C(=O)CSC5c5ccc(N(C)C)cc5)nc4cc3s2)cc1 (stereo not given)
inactive: 786-0 > 100 µM | A498 27.9 µM | A549 7.71 µM | ACHN 28.1 µM | CAKI-1 8.49 µM | COLO 205 3.73 µM | DU-145 13.2 µM | HOP-62 56.6 µM | HOP-92 > 60.5 µM | MDA-MB-435 28 µM | Malme-3M > 100 µM | NCI/ADR-RES > 23.3 µM | SK-MEL-2 > 100 µM | SNB-19 41.4 µM | SR 6.62 µM | SW-620 8.02 µM | T47D 31.6 µM | U-251 30.7 µM | UACC-257 > 25.5 µM | UO-31 23.1 µM

O=C(O)c1cccc(C(=O)O)c1[S+]([O-])Cc1ccccc1 (stereo not given)
inactive: 786-0 > 100 µM | A498 > 100 µM | A549 > 100 µM | ACHN > 100 µM | CAKI-1 > 100 µM | COLO 205 > 100 µM | DU-145 > 100 µM | HOP-62 > 100 µM | HOP-92 > 100 µM | MDA-MB-435 > 100 µM | Malme-3M > 100 µM | NCI/ADR-RES > 100 µM | SK-MEL-2 > 100 µM | SNB-19 > 100 µM | SR > 100 µM | SW-620 > 100 µM | T47D > 100 µM | U-251 > 100 µM | UACC-257 > 100 µM | UO-31 > 100 µM

C1CSCCSCCCSCCSCCCSCCSCCCSCCSC1
inactive: 786-0 > 100 µM | A498 > 100 µM | A549 > 100 µM | ACHN > 100 µM | CAKI-1 > 100 µM | COLO 205 > 100 µM | DU-145 > 100 µM | HOP-62 > 100 µM | HOP-92 > 100 µM | MDA-MB-435 > 100 µM | Malme-3M > 100 µM | NCI/ADR-RES > 100 µM | SK-MEL-2 > 100 µM | SNB-19 > 100 µM | SR > 100 µM | SW-620 > 100 µM | T47D 57 µM | U-251 > 100 µM | UACC-257 > 100 µM | UO-31 > 100 µM

CCC(C)C1NC(=O)C(NC(=O)C(CC(C)C)N(C)C(=O)[C@@H]2CC(O)CN2C(=O)[C@H](C)O)C(C)OC(=O)[C@H](Cc2ccc(OC)cc2)N(C)C(=O)[C@@H]2CCCN2C(=O)[C@H](CC(C)C)NC(=O)C(C)C(=O)[C@H](C(C)C)OC(=O)CC1O (stereo not given in full)
active: 786-0 0.258 µM | A498 0.759 µM | A549 0.325 µM | ACHN 0.351 µM | COLO 205 0.117 µM | DU-145 0.356 µM | HOP-62 0.25 µM | HOP-92 0.255 µM | MDA-MB-435 0.152 µM | Malme-3M 0.0664 µM | SK-MEL-2 0.0621 µM | SNB-19 0.164 µM | SR 0.345 µM | SW-620 0.235 µM | T47D 0.0452 µM | U-251 0.0718 µM | UACC-257 0.276 µM
inactive: CAKI-1 1.14 µM | NCI/ADR-RES 6.84 µM | UO-31 1.44 µM

CC(C)[Si]1(C(C)C)OCC2OC(n3ccc(=O)[nH]c3=O)C(O)(CO)C2O[Si](C(C)C)(C(C)C)O1 (stereo not given)
inactive: 786-0 15.3 µM | A498 20.7 µM | A549 14.4 µM | ACHN 17.1 µM | CAKI-1 15.8 µM | COLO 205 17.6 µM | DU-145 18.3 µM | HOP-62 19.4 µM | HOP-92 10.5 µM | MDA-MB-435 17 µM | Malme-3M 15 µM | NCI/ADR-RES 16 µM | SK-MEL-2 16.7 µM | SNB-19 15.3 µM | SR 12.9 µM | SW-620 17.1 µM | T47D 15.1 µM | U-251 15.1 µM | UACC-257 15.3 µM | UO-31 10.2 µM

N#CC(C#N)=C1C(C#N)=C(N)NC12OCCO2
inactive: 786-0 > 100 µM | A498 > 100 µM | A549 > 100 µM | ACHN > 100 µM | CAKI-1 > 100 µM | COLO 205 > 100 µM | DU-145 > 100 µM | HOP-62 > 100 µM | HOP-92 > 100 µM | MDA-MB-435 > 100 µM | Malme-3M > 100 µM | NCI/ADR-RES > 100 µM | SK-MEL-2 > 100 µM | SNB-19 > 100 µM | SR > 100 µM | SW-620 > 100 µM | T47D > 100 µM | U-251 > 100 µM | UACC-257 > 100 µM | UO-31 > 100 µM

COC(=O)CCc1cc(O)c2c(c1)C(C(=O)OC)C(c1ccc(O)c(O)c1)O2 (stereo not given)
inactive: 786-0 26.1 µM | A498 > 44.9 µM | A549 43.4 µM | ACHN 33.7 µM | CAKI-1 26.6 µM | COLO 205 31.4 µM | DU-145 > 41.9 µM | HOP-62 15.1 µM | HOP-92 44 µM | MDA-MB-435 1.48 µM | Malme-3M 6.97 µM | NCI/ADR-RES 42.3 µM | SK-MEL-2 3.39 µM | SNB-19 11.1 µM | SR 3.45 µM | SW-620 6.17 µM | T47D 6.37 µM | U-251 11.8 µM | UACC-257 > 48.2 µM | UO-31 26.2 µM
